# Laboratory results from patent publication US6599937B1, “Unsaturated oxyalkylene esters and uses thereof” (Beacon Laboratories, Inc., priority 1997, dated 2003).
# Where two headings read alike, the source gives them in different places.
# Key:
# OVCAR-5 = experiment: SRB assay, inhibition of cancer cell proliferation, OVCAR-5; assay type: cell-based
# Experimental: (§1) The inhibition of cell proliferation was measured in the indicated cancer cell lines using the sulforhodamine B (SRB) assay as described by Monks et al., 1991, J. Natl. Can. Inst. 83:757-766. The SRB assay is used to screen for anti-cancer drugs. […] The table provides the dosage of each compound (in mM) which inhibited fifty percent (IC50) or ninety percent (IC90) of proliferation when calculated using the Chou Analysis' Median Effective Dose equation.
# PC-3 = experiment: SRB assay, inhibition of cancer cell proliferation, PC-3; assay type: cell-based, human
# Experimental: as §1
# NCI-H23 = experiment: SRB assay, inhibition of cancer cell proliferation, NCI-H23; assay type: cell-based
# Experimental: as §1
# CFPAC = experiment: SRB assay, inhibition of cancer cell proliferation, CFPAC; assay type: cell-based
# Experimental: as §1
# SF-295 = experiment: SRB assay, inhibition of cancer cell proliferation, SF-295; assay type: cell-based
# Experimental: as §1
# NCI-H522 = experiment: SRB assay, inhibition of cancer cell proliferation, NCI-H522; assay type: cell-based
# Experimental: as §1
# HT29 = experiment: SRB assay, inhibition of cancer cell proliferation, HT29; assay type: cell-based
# Experimental: as §1
# LOX IMVI = experiment: SRB assay, inhibition of cancer cell proliferation, LOX IMVI; assay type: cell-based
# Experimental: as §1
# MCF7 = experiment: SRB assay, inhibition of cancer cell proliferation, MCF7; assay type: cell-based, human
# Experimental: (§2) Human promyelocytic leukemia cells (HL-60), human pancreatic carcinoma cells (PaCa-2) and human breast adenocarcinoma cells, pleural effusion cells (MCF-7) can be cultured as follows. Cells are grown in RPMI media with 10% FCS, supplemented with 2 mM glutamine and incubated at 37° C. in a humidified 5% CO2 incubator. Alternatively, cells can be grown in any other appropriate growth medium and conditions which supports the growth of the cell line under investigation. Viability can be determined by trypan blue exclusion. Cells are exposed to a test compound, cultures are harvested at various time points following treatment and stained with trypan blue. The inhibition of cell proliferation was measured in the indicated cancer cell lines using the sulforhodamine B (SRB) assay as described by Monks et al., 1991, J. Natl. Can. Inst. 83:757-766. The SRB assay is used to screen for anti-cancer drugs. […] The table provides the dosage of each compound (in mM) which inhibited fifty percent (IC50) or ninety percent (IC90) of proliferation when calculated using the Chou Analysis' Median Effective Dose equation.
# HL-60 = experiment: SRB assay, inhibition of cancer cell proliferation, HL-60; assay type: cell-based, human
# Experimental: as §2
# HL-60 cells = HL-60 cells cultured 3 days
# Experimental: Cancer cell differentiation was evaluated in a human leukemia cell line by changes in expression of myelocytic maturation marker CD11b. The level of CD11b was measured on HL-60 cells by flow cytometry using a monoclonal antibody (MAb) against CD11b in a standard indirect immunofluorescence assay. Cells were cultured for 3 days with media or the indicated concentration of DiMeOCOMB. Cultured cells were collected by centrifugation, resuspended at 10^6 cells per 20μ RPMI+10% FCS and incubated with MAb for 30 min at […]. The cells were washed twice in cold PBS+[…] FCS and incubated with a 1:20 dilution of FITC-conjugated F(ab′)^2 fragment of rabbit anti-mouse IgG for 20-30 min at […]. in the dark. After washing the cells twice in cold PBS+10% FCS, the flow cytometry was performed.
# [1] = Homo sapiens, OVCAR-5 cell line, SRB assay, Chou Median Effective Dose equation, read-out: IC50
# [2] = Homo sapiens, OVCAR-5 cell line, SRB assay, Chou Median Effective Dose equation, read-out: IC90
# [3] = Homo sapiens, PC-3 cell line, SRB assay, Chou Median Effective Dose equation, read-out: IC50
# [4] = Homo sapiens, PC-3 cell line, SRB assay, Chou Median Effective Dose equation, read-out: IC90
# [5] = Homo sapiens, NCI-H23 cell line, SRB assay, Chou Median Effective Dose equation, read-out: IC50
# [6] = Homo sapiens, NCI-H23 cell line, SRB assay, Chou Median Effective Dose equation, read-out: IC90
# [7] = CFPAC cell line, SRB assay, Chou Median Effective Dose equation, read-out: IC50
# [8] = CFPAC cell line, SRB assay, Chou Median Effective Dose equation, read-out: IC90
# [9] = Homo sapiens, SF-295 cell line, SRB assay, Chou Median Effective Dose equation, read-out: IC50
# [10] = Homo sapiens, SF-295 cell line, SRB assay, Chou Median Effective Dose equation, read-out: IC90
# [11] = Homo sapiens, NCI-H522 cell line, SRB assay, Chou Median Effective Dose equation, read-out: IC50
# [12] = Homo sapiens, NCI-H522 cell line, SRB assay, Chou Median Effective Dose equation, read-out: IC90
# [13] = Homo sapiens, HT-29, HT29 cell line, SRB assay, Chou Median Effective Dose equation, read-out: IC50
# [14] = Homo sapiens, HT-29, HT29 cell line, SRB assay, Chou Median Effective Dose equation, read-out: IC90
# [15] = Homo sapiens, LOX IMVI cell line, SRB assay, Chou Median Effective Dose equation, read-out: IC50
# [16] = Homo sapiens, LOX IMVI cell line, SRB assay, Chou Median Effective Dose equation, read-out: IC90
# [17] = Homo sapiens, MCF7 cell line, SRB assay, Chou Median Effective Dose equation, read-out: IC50
# [18] = Homo sapiens, MCF7 cell line, SRB assay, Chou Median Effective Dose equation, read-out: IC90
# [19] = Homo sapiens, HL-60 cell line, SRB assay, Chou Median Effective Dose equation, read-out: IC50
# [20] = Homo sapiens, HL-60 cell line, SRB assay, Chou Median Effective Dose equation, read-out: IC90
smiles,measurement,setting,value
"CC(Cc1ccccc1)C(=O)O (centres unmarked) [MePPA, 2-methyl-3-phenylpropionic acid, reference compound]",IC50,"OVCAR-5; Homo sapiens, OVCAR-5",> 4000 µM
same,IC90,"OVCAR-5; Homo sapiens, OVCAR-5",> 4000 µM
same,IC50,"PC-3; Homo sapiens, PC-3",> 4000 µM
same,IC90,"PC-3; Homo sapiens, PC-3",> 4000 µM
same,IC50,"NCI-H23; Homo sapiens, NCI-H23",> 4000 µM
same,IC90,"NCI-H23; Homo sapiens, NCI-H23",> 4000 µM
same,IC50,CFPAC,3540 µM
same,IC90,CFPAC,> 4000 µM
same,IC50,"SF-295; Homo sapiens, SF-295",> 4000 µM
same,IC90,"SF-295; Homo sapiens, SF-295",> 4000 µM
same,IC50,"NCI-H522; Homo sapiens, NCI-H522",> 4000 µM
same,IC90,"NCI-H522; Homo sapiens, NCI-H522",> 4000 µM
same,IC50,"HT29; Homo sapiens, HT-29",> 4000 µM
same,IC90,"HT29; Homo sapiens, HT-29",> 4000 µM
same,IC50,"LOX IMVI; Homo sapiens, LOX IMVI",> 4000 µM
same,IC90,"LOX IMVI; Homo sapiens, LOX IMVI",> 4000 µM
same,IC50,"MCF7; Homo sapiens, MCF7",> 4000 µM
same,IC90,"MCF7; Homo sapiens, MCF7",> 4000 µM
same,IC50,"HL-60; Homo sapiens, HL-60",> 4000 µM
same,IC90,"HL-60; Homo sapiens, HL-60",> 4000 µM
"CCCC(=O)OCOC(=O)C=Cc1ccccc1 [COMB, Cinnamoyloxymethyl Butyrate]",IC50,OVCAR-5; [1],367 µM
same,IC90,OVCAR-5; [2],500 µM
same,IC50,PC-3; [3],203 µM
same,IC90,PC-3; [4],> 4000 µM
same,IC50,NCI-H23; [5],182 µM
same,IC90,NCI-H23; [6],249 µM
same,IC50,CFPAC; [7],150 µM
same,IC90,CFPAC; [8],237 µM
same,IC50,SF-295; [9],197 µM
same,IC90,SF-295; [10],> 4000 µM
same,IC50,NCI-H522; [11],189 µM
same,IC90,NCI-H522; [12],249 µM
same,IC50,HT29; [13],349 µM
same,IC90,HT29; [14],492 µM
same,IC50,LOX IMVI; [15],197 µM
same,IC90,LOX IMVI; [16],1910 µM
same,IC50,MCF7; [17],196 µM
same,IC90,MCF7; [18],> 4000 µM
same,IC50,HL-60; [19],443 µM
same,IC90,HL-60; [20],> 4000 µM
"CCCC(=O)OCOC(=O)C=Cc1ccc(OC)c(OC)c1 [DiMeOCOMB, 3,4-Dimethyoxycinnamoyloxymethyl Butyrate]",IC50,"OVCAR-5; OVCAR-5 cell line, SRB assay, Chou Median Effective Dose equation, read-out: IC50",1460 µM
same,IC90,"OVCAR-5; OVCAR-5 cell line, SRB assay, Chou Median Effective Dose equation, read-out: IC90",1890 µM
same,IC50,"PC-3; PC-3 cell line, SRB assay, Chou Median Effective Dose equation, read-out: IC50",1440 µM
same,IC90,"PC-3; PC-3 cell line, SRB assay, Chou Median Effective Dose equation, read-out: IC90",1870 µM
same,IC50,"NCI-H23; NCI-H23 cell line, SRB assay, Chou Median Effective Dose equation, read-out: IC50",785 µM
same,IC90,"NCI-H23; NCI-H23 cell line, SRB assay, Chou Median Effective Dose equation, read-out: IC90",> 4000 µM
same,IC50,CFPAC; [7],308 µM
same,IC90,CFPAC; [8],3570 µM
same,IC50,"SF-295; SF-295 cell line, SRB assay, Chou Median Effective Dose equation, read-out: IC50",764 µM
same,IC90,"SF-295; SF-295 cell line, SRB assay, Chou Median Effective Dose equation, read-out: IC90",977 µM
same,IC50,"NCI-H522; NCI-H522 cell line, SRB assay, Chou Median Effective Dose equation, read-out: IC50",752 µM
same,IC90,"NCI-H522; NCI-H522 cell line, SRB assay, Chou Median Effective Dose equation, read-out: IC90",1370 µM
same,IC50,"HT29; HT29 cell line, SRB assay, Chou Median Effective Dose equation, read-out: IC50",406 µM
same,IC90,"HT29; HT29 cell line, SRB assay, Chou Median Effective Dose equation, read-out: IC90",798 µM
same,% CD11b Cells,HL-60 cells; concentration 50 μM (media control 12.2),87.5%
same,% CD11b Cells,HL-60 cells; concentration 100 μM (media control 12.2),88.6%
same,% CD11b Cells,HL-60 cells; concentration 203 μM (media control 12.2),90.4%
same,IC50,"LOX IMVI; LOX IMVI cell line, SRB assay, Chou Median Effective Dose equation, read-out: IC50",772 µM
same,IC90,"LOX IMVI; LOX IMVI cell line, SRB assay, Chou Median Effective Dose equation, read-out: IC90",978 µM
same,IC50,"MCF7; MCF7 cell line, SRB assay, Chou Median Effective Dose equation, read-out: IC50",301 µM
same,IC90,"MCF7; MCF7 cell line, SRB assay, Chou Median Effective Dose equation, read-out: IC90",466 µM
same,IC50,"HL-60; HL-60 cell line, SRB assay, Chou Median Effective Dose equation, read-out: IC50",203 µM
same,IC90,"HL-60; HL-60 cell line, SRB assay, Chou Median Effective Dose equation, read-out: IC90",248 µM
"CC(=Cc1ccccc1)C(=O)O [MeCA, α-methylcinnamic acid, reference compound]",IC50,OVCAR-5; [1],3730 µM
same,IC90,OVCAR-5; [2],> 4000 µM
same,IC50,PC-3; [3],> 4000 µM
same,IC90,PC-3; [4],> 4000 µM
same,IC50,NCI-H23; [5],3270 µM
same,IC90,NCI-H23; [6],> 4000 µM
same,IC50,CFPAC; [7],1940 µM
same,IC90,CFPAC; [8],> 4000 µM
same,IC50,SF-295; [9],> 4000 µM
same,IC90,SF-295; [10],> 4000 µM
same,IC50,NCI-H522; [11],1980 µM
same,IC90,NCI-H522; [12],3820 µM
same,IC50,HT29; [13],3960 µM
same,IC90,HT29; [14],> 4000 µM
same,IC50,LOX IMVI; [15],3360 µM
same,IC90,LOX IMVI; [16],> 4000 µM
same,IC50,MCF7; [17],> 4000 µM
same,IC90,MCF7; [18],> 4000 µM
same,IC50,HL-60; [19],2600 µM
same,IC90,HL-60; [20],> 4000 µM
